Here are results for 13 compounds from ChEMBL document CHEMBL1132216, “Studies on the monoamine oxidase-B-catalyzed biotransformation of 4-azaaryl-1-methyl-1,2,3,6-tetrahydropyridine derivatives” (J Med Chem, 1999).

One may read the logP as a log measure of how a compound divides between an organic and an aqueous phase. A lower logP goes with lower lipophilicity. By Km is commonly meant the concentration of substrate that gives half-maximal velocity.

One data set in a line: physchem. Particulars: octanol/water.
Data set [1] has as its target T1, Amine oxidase [flavin-containing] B (Bos taurus, UniProt P56560).
T1 sequence (P56560 whole entry): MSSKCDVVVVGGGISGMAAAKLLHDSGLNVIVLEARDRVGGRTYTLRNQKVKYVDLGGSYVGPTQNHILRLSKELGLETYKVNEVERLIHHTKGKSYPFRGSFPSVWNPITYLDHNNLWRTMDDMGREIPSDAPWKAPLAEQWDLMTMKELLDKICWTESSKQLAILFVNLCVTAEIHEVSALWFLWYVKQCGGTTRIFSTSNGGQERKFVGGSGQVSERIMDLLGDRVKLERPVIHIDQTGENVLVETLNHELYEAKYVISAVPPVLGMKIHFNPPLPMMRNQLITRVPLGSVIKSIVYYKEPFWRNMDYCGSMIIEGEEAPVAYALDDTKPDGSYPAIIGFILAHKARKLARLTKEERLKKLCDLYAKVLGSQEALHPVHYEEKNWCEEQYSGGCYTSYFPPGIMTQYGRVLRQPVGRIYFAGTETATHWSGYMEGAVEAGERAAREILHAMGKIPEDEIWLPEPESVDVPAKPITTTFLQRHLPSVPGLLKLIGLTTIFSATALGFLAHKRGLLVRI
Put plainly: Ratio of Kcat versus Km was determined.

Data set [2] concerns the target T1, Amine oxidase [flavin-containing] B. Particulars: cattle.
Description: Kcat against bovine liver Monoamine oxidase B
Data set [3] deals with T2, Monoamine oxidase B (MAO-B) (Bos taurus, UniProt P56560).
T2 sequence (P56560 whole entry): T1 sequence (P56560 whole entry)
Put plainly: in vitro. To be noted: cattle, bovine liver monoamine oxidase B.
Description: Km against bovine liver Monoamine oxidase B

Description for physchem: Partition coefficient (logP)

Consider `CN1CC=C(c2cccn2C)CC1`, for which the logP in “physchem” worked out at 1.73.
`CN1CC=C(n2ncc3ccccc32)CC1`: the logP in “physchem” was 2.85. Further, the Ratio in data set [1] was 850.
The compound `CN1CC=C(n2ccnn2)CC1` yielded a logP in “physchem” of 1.13.
In the case of `CN1CC=C(c2cccnc2)CC1`, in data set [2], the k cat is 1.12 s⁻¹. Moreover, the Km in data set [3] was 1900 µM. The logP in “physchem” came to 1.44. Also, the Ratio in data set [1] came to 35.
`CN1CC=C(c2ccncc2)CC1`: in the data set “physchem”, the logP is 1.24. Moreover, in data set [1], the Ratio is listed as 6.
For `CN1CC=C(n2cccc2)CC1`, in that order: 2.17 and 410.
In turn, `CN1CC=C(n2nccn2)CC1` gave a logP in the data set “physchem” of 1.13.
The same measure, in the same setting: the result for `CN1CC=C(c2ccc[nH]2)CC1` reads 1.27.
Turning to `CN1CC=C(c2ccccn2)CC1`, in data set [2], the k cat came out at 0.933 s⁻¹. In addition, in data set [3], the Km was 900 µM. For the same compound, in the data set “physchem”, the logP was determined as 1.24. Moreover, the Ratio in data set [1] was 60.
Take `CN1CC=C(n2ccc3ccccc32)CC1`: the logP in the data set “physchem” turned out to be 3.61. In addition, the Ratio in data set [1] is 3350.
The matching figures for `CN1CC=C(n2nnc3ccccc32)CC1`: 2.36 and 675.
For `CN1CC=C(n2cnc3ccccc32)CC1`, in that order: 2.54 and 220.
Compound `CN1CC=C(n2ccnc2)CC1` registered a logP in the data set “physchem” of 1.31.
